Reference: patent US9314510B2, “Human laminin α2 chain LG3 domain and active peptides promoting cell adhesion, spreading, migration, and neurite outgrowth” (SNU R&DB Foundation, priority 2011, dated 2016)
pIC50: −log10 of the molar value.

Columns and labels:
[1] = tested on: PC12 cells; assay: Effect of PKC inhibitor pretreatment on cell adhesion, spreading, migration and stress fiber formation; format: cell-based, rat; conditions: Gö6976 2.5 or 5.0 nM, rottlerin 1 or 5 μM, 15 min
Method: PC12 cells were pretreated with Gö6976 or rottlerin for 15 min at 37° C. and seeded on laminin-, rLG3-, or Ln2-LG3-P2-coated plates and then, cell adhesion, spreading, migration, and stress fiber formation were observed. To observe cell adhesion, the pretreated PC12 cells were incubated for 1 h and to observe cell spreading and stress fiber formation, the pretreated PC12 cells were incubated on the coated plates for 3 h. In addition, to observe cell migration, the pretreated PC12 cells were incubated on the coated plates for 24 h.

[2] = tested on: PC12 cells; assay: Cell viability with PKC inhibitors; conditions: at the concentrations used and duration of treatment
[3] = tested on: PKCα/β; conditions: PKCα/β inhibitor; cited from earlier work
[4] = tested on: FAK Tyr-397; assay: Effect of PKC inhibitors on FAK phosphorylation at Tyr-397; format: cell-based, rat; conditions: PC12 cells pretreated with 5 nM Gö6976 or 5 μM rottlerin 15 min, laminin, rLG3, Ln2-LG3-P2 plates
Method: PC12 cells were pretreated with 5 nM Gö6976 or 5 μM rottlerin for 15 min at 37° C. and seeded on laminin-, rLG3-, or Ln2-LG3-P2-coated plates for 15 min in serum-free medium.

[5] = tested on: PC12 cells; conditions: cited from earlier work
[6] = tested on: PC12 cells; assay: Effect of PLC inhibitor on cell adhesion and spreading; format: cell-based, rat; conditions: 0.5 or 1.0 μM
[7] = biological target: PKCδ (Homo sapiens, UniProt Q05655); conditions: PKCδ inhibitor; cited from earlier work
[8] = tested on: fibroblasts; conditions: 1-3 μM; cited from earlier work
[9] = tested on: PC12 cells; assay: Effect of rottlerin on stress fibers of already spread cells; format: cell-based, rat; conditions: 2.5 h incubation, then 5 μM for 30 min
Method: PC12 cells were seeded on glass slide chambers coated with laminin, rLG3, or Ln2-LG3-P2. After 2.5 h incubation, the cells were treated with 5 μM rottlerin for 30 min and immunostained with rhodamine-phalloidin.

[10] = tested on: PC12 cells; assay: Effect of Rho-kinase inhibitor on stress fibers; format: cell-based, rat; conditions: cells seeded 1 h, then 10 μM for 2 h
Method: PC12 cells were seeded on glass slide chambers coated with laminin, rLG3, or Ln2-LG3-P2 for 1 h. The cells were treated with […] Y27632, a selective inhibitor of Rho-associated protein kinase, for 2 h in serum-free medium and immunostained with rhodamine-phalloidin.

PKCδ, sequence (Q05655 whole entry): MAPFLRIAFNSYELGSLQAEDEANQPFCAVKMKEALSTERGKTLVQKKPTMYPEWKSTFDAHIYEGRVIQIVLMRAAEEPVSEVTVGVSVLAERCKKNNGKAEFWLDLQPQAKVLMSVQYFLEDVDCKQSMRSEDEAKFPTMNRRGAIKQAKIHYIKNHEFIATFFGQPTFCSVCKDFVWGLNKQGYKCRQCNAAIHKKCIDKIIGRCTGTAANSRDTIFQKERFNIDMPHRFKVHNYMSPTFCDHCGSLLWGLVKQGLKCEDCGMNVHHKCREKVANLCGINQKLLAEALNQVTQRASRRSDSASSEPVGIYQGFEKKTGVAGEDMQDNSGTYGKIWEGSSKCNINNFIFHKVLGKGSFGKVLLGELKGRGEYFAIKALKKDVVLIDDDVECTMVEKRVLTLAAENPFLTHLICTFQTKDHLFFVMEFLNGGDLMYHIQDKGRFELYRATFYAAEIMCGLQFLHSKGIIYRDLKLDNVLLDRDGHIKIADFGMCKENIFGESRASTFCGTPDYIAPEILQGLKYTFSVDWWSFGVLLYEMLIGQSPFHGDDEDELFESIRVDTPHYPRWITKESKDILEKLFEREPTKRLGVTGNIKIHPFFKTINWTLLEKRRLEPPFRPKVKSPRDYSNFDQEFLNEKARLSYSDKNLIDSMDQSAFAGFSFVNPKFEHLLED

## Cn1c2ccccc2c2c3c(c4c5ccccc5n(CCC#N)c4c21)CNC3=O [Gö6976]
[1]; 3 h
  spreading of PC12 cells to laminin, rLG3, and Ln2-LG3-P2 after inhibitor pretreatment: not with Gö6976 significantly impaired
[2]
  cell viability: did not affect cell viability
[3]
  pIC50: 8.64
[4]
  level of FAK phosphorylation at Tyr-397: did not affect

## COc1ccc2c(c1)CC[C@@H]1[C@@H]2CC[C@]2(C)[C@@H](NCCCCCCN3C(=O)C=CC3=O)CC[C@@H]12 [U73122]
[5]
  α1β1 integrin-mediated PC12 cell adhesion: reduced
[6]; 15 min, 1 h
  cell adhesion to rLG3 and Ln2-LG3-P2 after inhibitor pretreatment: reduced by U73122 in a dose-dependent manner
[6]; 15 min, 3 h
  cell spreading to rLG3 and Ln2-LG3-P2 after inhibitor pretreatment: reduced
[6]; rLG3 and Ln2-LG3-P2 plates, 3 h
  cell adhesion (as printed in legend of FIG. 15B): reduced by U73122 in a dose-dependent manner

## CC(=O)c1c(O)c(C)c(O)c(Cc2c(O)c3c(c(C(=O)/C=C/c4ccccc4)c2O)OC(C)(C)C=C3)c1O [rottlerin]
[7]
  pIC50: 5.22 to 5.52
[1]; 1 h
  adhesion of PC12 cells to laminin, rLG3, and Ln2-LG3-P2 after inhibitor pretreatment: significantly impaired
[1]; 3 h
  spreading of PC12 cells to laminin, rLG3, and Ln2-LG3-P2 after inhibitor pretreatment: significantly impaired
  stress fiber formation of PC12 cells to laminin, rLG3, and Ln2-LG3-P2 after inhibitor pretreatment: significantly impaired
[1]; 24 h
  migration of PC12 cells to laminin, rLG3, and Ln2-LG3-P2 after inhibitor pretreatment: significantly impaired
[8]
  stress fiber formation of fibroblasts pre-spread on fibronectin: does not impair stress fiber formation
[2]
  cell viability: did not affect cell viability
[9]
  stress fiber formation of PC12 cells already spread on laminin, rLG3, and Ln2-LG3-P2: did not interfere with stress fiber formation
[4]
  level of FAK phosphorylation at Tyr-397: reduced

## C[C@@H](N)[C@H]1CC[C@H](C(=O)Nc2ccncc2)CC1 [Y27632]
[10]
  stress fibers of PC12 cells to laminin, rLG3, and Ln2-LG3-P2: completely disassembled stress fibers
